Data reported in ChEMBL document CHEMBL1629655, “Affinity of Tomopenem (CS-023) for penicillin-binding proteins in Staphylococcus aureus, Escherichia coli, and Pseudomonas aeruginosa” (Antimicrob Agents Chemother, 2009).
In brackets after ≈: the same amount, converted by molar mass.

Experiments:
Pseudomonas aeruginosa [1] = assay: Antibacterial activity against Pseudomonas aeruginosa PMR2a selected at 2 times MIC of meropenem by microdilution method; format: functional
Staphylococcus aureus [2] = assay: Ratio of MIC for Staphylococcus aureus SIR2a selected at 2 times MIC of imipenem to MIC for Staphylococcus aureus ATCC 6538P; format: functional
Staphylococcus aureus [3] = assay: Antibacterial activity against Staphylococcus aureus SMR4a […] MIC of meropenem by microdilution method; format: functional
Escherichia coli [4] = assay: Antibacterial activity against Escherichia coli EMR2a selected at 2 times MIC of meropenem by microdilution method; format: functional
Pseudomonas aeruginosa [5] = assay: Antibacterial activity against Pseudomonas aeruginosa ATCC 15692 by microdilution method; format: functional, organism-based
[6] = Displacement of [14C]benzylpenicillin from PBP 5 in Pseudomonas aeruginosa ATCC 15692
[7] = Displacement of [14C]benzylpenicillin from PBP2 in Escherichia coli NIHJ
Pseudomonas aeruginosa [8] = assay: Antibacterial activity against Pseudomonas aeruginosa PIR2a selected at 2 times MIC of imipenem by microdilution method; format: functional
[9] = Displacement of [14C]benzylpenicillin from PBP1B in Escherichia coli NIHJ
Pseudomonas aeruginosa [10] = assay: Ratio of MIC for Pseudomonas aeruginosa PIR2a to MIC for Pseudomonas aeruginosa ATCC 15692; format: functional
Escherichia coli [11] = assay: Antibacterial activity against Escherichia coli EIR2b selected at 2 times MIC of imipenem by microdilution method; format: functional
Escherichia coli [12] = assay: Ratio of MIC for Escherichia coli ERR2b to MIC for Escherichia coli NIHJ; format: functional
Escherichia coli [13] = assay: Antibacterial activity against Escherichia coli ERR4a selected at 4 times MIC of tomopenem by microdilution method; format: functional
Escherichia coli [14] = assay: Antibacterial activity against Escherichia coli ERR2a selected at 2 times MIC of tomopenem by microdilution method; format: functional
Escherichia coli [15] = assay: Antibacterial activity against Escherichia coli ERR8a selected at 8 times MIC of tomopenem by microdilution method; format: functional
[16] = Displacement of [14C]benzylpenicillin from PBP2 Staphylococcus aureus ATCC 6538P
Escherichia coli [17] = assay: Antibacterial activity against Escherichia coli EIR8a selected at 8 times MIC of imipenem by microdilution method; format: functional
[18] = Displacement of [14C]benzylpenicillin from PBP 6 in Pseudomonas aeruginosa ATCC 15692
Escherichia coli [19] = assay: Ratio of MIC for Escherichia coli EIR4a to MIC for Escherichia coli NIHJ; format: functional
Escherichia coli [20] = assay: Antibacterial activity against Escherichia coli EIR2a selected at 2 times MIC of imipenem by microdilution method; format: functional
Pseudomonas aeruginosa [21] = assay: Ratio of MIC for Pseudomonas aeruginosa PRR4a to MIC for Pseudomonas aeruginosa ATCC 15692; format: functional
[22] = Displacement of [14C]benzylpenicillin from PBP3 in Escherichia coli NIHJ
Escherichia coli [23] = assay: Ratio of MIC for Escherichia coli EMR2a to MIC for Escherichia coli NIHJ; format: functional
[24] = Displacement of [14C]benzylpenicillin from PBP4 in Staphylococcus aureus ATCC 6538P
Staphylococcus aureus [25] = assay: Antibacterial activity against Staphylococcus aureus SIR2a selected at 2 times MIC of imipenem by microdilution method; format: functional
Staphylococcus aureus [26] = assay: Ratio of MIC for Staphylococcus aureus SMR2a to MIC for Staphylococcus aureus ATCC 6538P; format: functional
[27] = Displacement of [14C]benzylpenicillin from PBP1 in Staphylococcus aureus ATCC 6538P
Escherichia coli [28] = assay: Ratio of MIC for Escherichia coli EIR4b to MIC for Escherichia coli NIHJ; format: functional
Escherichia coli [29] = assay: Ratio of MIC for Escherichia coli EIR2b to MIC for Escherichia coli NIHJ; format: functional
[30] = Displacement of [14C]benzylpenicillin from PBP2 in Pseudomonas aeruginosa ATCC 15692
[31] = Displacement of [14C]benzylpenicillin from PBP6 Escherichia coli NIHJ
Escherichia coli [32] = assay: Ratio of MIC for Escherichia coli EIR2a to MIC for Escherichia coli NIHJ; format: functional
Escherichia coli [33] = assay: Ratio of MIC for Escherichia coli ERR4a to MIC for Escherichia coli NIHJ; format: functional
Escherichia coli [34] = assay: Ratio of MIC for Escherichia coli ERR2a selected to MIC for Escherichia coli NIHJ; format: functional
Staphylococcus aureus [35] = assay: Antibacterial activity against Staphylococcus aureus SMR2a selected at 2 times MIC of meropenem by microdilution method; format: functional
Escherichia coli [36] = assay: Ratio of MIC for Escherichia coli ERR8a to MIC for Escherichia coli NIHJ; format: functional
[37] = Displacement of [14C]benzylpenicillin from PBP4 in Pseudomonas aeruginosa ATCC 15692
[38] = Displacement of [14C]benzylpenicillin from PBP1B in Pseudomonas aeruginosa ATCC 15692
Staphylococcus aureus [39] = assay: Ratio of MIC for Staphylococcus aureus SRR2a to MIC for Staphylococcus aureus ATCC 6538P; format: functional
Escherichia coli [40] = assay: Antibacterial activity against Escherichia coli EIR4b selected at 4 times MIC of imipenem by microdilution method; format: functional
Escherichia coli [41] = assay: Antibacterial activity against Escherichia coli EIR4a selected at 4 times MIC of imipenem by microdilution method; format: functional
[42] = Displacement of [14C]benzylpenicillin from PBP1A in Escherichia coli NIHJ
[43] = Displacement of [14C]benzylpenicillin from PBP3 in Pseudomonas aeruginosa ATCC 15692
[44] = Displacement of [14C]benzylpenicillin from PBP3 in Staphylococcus aureus ATCC 6538P
Escherichia coli [45] = assay: Ratio of MIC for Escherichia coli EIR8a to MIC for Escherichia coli NIHJ; format: functional
Escherichia coli [46] = assay: Antibacterial activity against Escherichia coli NIHJ by microdilution method; format: functional, organism-based
[47] = Displacement of [14C]benzylpenicillin from PBP1A in Pseudomonas aeruginosa ATCC 15692
Staphylococcus aureus [48] = assay: Antibacterial activity against Staphylococcus aureus ATCC 6538P by microdilution method; format: functional, organism-based
[49] = Displacement of [14C]benzylpenicillin from PBP5 in Escherichia coli NIHJ
Pseudomonas aeruginosa [50] = assay: Ratio of MIC for Pseudomonas aeruginosa PMR2a to MIC for Pseudomonas aeruginosa ATCC 15692; format: functional
Pseudomonas aeruginosa [51] = assay: Antibacterial activity against Pseudomonas aeruginosa PRR4a selected at 4 times MIC of tomopenem by microdilution method; format: functional
[52] = Displacement of [14C]benzylpenicillin from PBP4 in Escherichia coli NIHJ
Staphylococcus aureus [53] = assay: Ratio of MIC for Staphylococcus aureus SMR4a to MIC for Staphylococcus aureus ATCC 6538P; format: functional
Staphylococcus aureus [54] = assay: Antibacterial activity against Staphylococcus aureus SRR2a selected at 2 times MIC of tomopenem by microdilution method; format: functional
Escherichia coli [55] = assay: Antibacterial activity against Escherichia coli ERR2b selected at 2 times MIC of tomopenem by microdilution method; format: functional

C[C@@H](O)[C@H]1C(=O)N2C(C(=O)O)=C(SCCNC=N)C[C@H]12 [IMIPENEM ANHYDROUS]
MIC (Pseudomonas aeruginosa [1]): 16 µg/mL | Ratio MIC (Staphylococcus aureus [2]): 4 | MIC (Staphylococcus aureus [3]): 0.03 µg/mL | MIC (Escherichia coli [4]): 1 µg/mL | MBC (Pseudomonas aeruginosa [5]): 2 µg/mL (≈ 6.68 µM) | MIC (Pseudomonas aeruginosa [5]): 1 µg/mL (≈ 3.34 µM) | IC50 [6]: 0.19 µg/mL (≈ 0.635 µM) | IC50 [7]: 0.045 µg/mL (≈ 0.15 µM) | MIC (Pseudomonas aeruginosa [8]): 16 µg/mL | IC50 [9]: 1.1 µg/mL (≈ 3.67 µM) | Ratio MIC (Pseudomonas aeruginosa [10]): 16 | MIC (Escherichia coli [11]): 0.5 µg/mL | Ratio MIC (Escherichia coli [12]): 4 | MIC (Escherichia coli [13]): 1 µg/mL | MIC (Escherichia coli [14]): 1 µg/mL | MIC (Escherichia coli [15]): 0.5 µg/mL | IC50 [16]: 0.047 µg/mL (≈ 0.157 µM) | MIC (Escherichia coli [17]): 0.5 µg/mL | IC50 [18]: 0.19 µg/mL (≈ 0.635 µM) | Ratio MIC (Escherichia coli [19]): 4 | MIC (Escherichia coli [20]): 1 µg/mL | Ratio MIC (Pseudomonas aeruginosa [21]): 8 | IC50 [22]: 19 µg/mL (≈ 63.5 µM) | Ratio MIC (Escherichia coli [23]): 4 | IC50 [24]: 0.0078 µg/mL (≈ 0.0261 µM) | MIC (Staphylococcus aureus [25]): 0.03 µg/mL | Ratio MIC (Staphylococcus aureus [26]): 4 | IC50 [27]: 0.024 µg/mL (≈ 0.0802 µM) | Ratio MIC (Escherichia coli [28]): 4 | Ratio MIC (Escherichia coli [29]): 2 | IC50 [30]: 0.066 µg/mL (≈ 0.22 µM) | IC50 [31]: 1 µg/mL (≈ 3.34 µM) | Ratio MIC (Escherichia coli [32]): 4 | Ratio MIC (Escherichia coli [33]): 4 | Ratio MIC (Escherichia coli [34]): 4 | MIC (Staphylococcus aureus [35]): 0.03 µg/mL | Ratio MIC (Escherichia coli [36]): 2 | IC50 [37]: 0.0032 µg/mL (≈ 0.0107 µM) | IC50 [38]: 0.078 µg/mL (≈ 0.261 µM) | Ratio MIC (Staphylococcus aureus [39]): 4 | MIC (Escherichia coli [40]): 1 µg/mL | MIC (Escherichia coli [41]): 1 µg/mL | IC50 [42]: 0.22 µg/mL (≈ 0.735 µM) | IC50 [43]: 0.089 µg/mL (≈ 0.297 µM) | IC50 [44]: 0.049 µg/mL (≈ 0.164 µM) | Ratio MIC (Escherichia coli [45]): 2 | MBC (Escherichia coli [46]): 0.25 µg/mL (≈ 0.835 µM) | MIC (Escherichia coli [46]): 0.25 µg/mL (≈ 0.835 µM) | IC50 [47]: 0.057 µg/mL (≈ 0.19 µM) | IC50 (Staphylococcus aureus [48]): 0.008 µg/mL (≈ 0.0267 µM) | MBC (Staphylococcus aureus [48]): 0.008 µg/mL (≈ 0.0267 µM) | MIC (Staphylococcus aureus [48]): 0.008 µg/mL (≈ 0.0267 µM) | IC50 [49]: 0.34 µg/mL (≈ 1.14 µM) | Ratio MIC (Pseudomonas aeruginosa [50]): 16 | MIC (Pseudomonas aeruginosa [51]): 8 µg/mL | IC50 [52]: 0.44 µg/mL (≈ 1.47 µM) | ratio (Staphylococcus aureus [53]): 4 | MIC (Staphylococcus aureus [54]): 0.03 µg/mL | MIC (Escherichia coli [55]): 1 µg/mL
